Data on 5 molecules can be found in US7951834B2, “Angiotensin I-converting enzyme (ACE) inhibitors” (University of Cape Town, priority 2005, dated 2011).

SMILES strings stand for the structures.

Data set [1] addresses tACEdelta36NJ (tACE, C domain) (Homo sapiens, UniProt P12821). In words: ACE inhibitory activity, fluorometric determination of phthaldialdehyde-derivatised His-Leu, tACE. The data set is classed as biochemical. To be noted: for inhibitory activity for ACE as compared to lisinopril: in words; for Ki: substrate ZPHL, enzyme + inhibitor incubated 3 hours at ambient temperature. As for the experimental part: (§1) The ACE inhibitory activity (as tabulated in Table 1) was measured by the fluorometric determination of phthaldialdehyde-derivatised histidylleucine, a product of the enzyme reaction according to the method of Almquist et al.,^12 with some modifications. For tACEdelta36NJ and N-domain inhibition using Z-Phe-His-Leu as substrate:—10 μL of 0.05 mg/mL enzyme+120 μL inhibitor was incubated at ambient temperature for 3 hours. Inhibitor concentrations ranged from 2.0 μM to 500 μM. A 3.0 μL aliquot of this was assayed for enzyme activity using 30 μL of 1.0 mM […]. This was incubated (in triplicate) for 30 mins at 37° C. and stopped with 180 μL solution of 0.28N NaOH. To this alkalized mixture 12 μL of o-phthaldialdehyde (150 mM) was added and the mixture incubated for another 10 mins at room temperature. Reactions were stopped by adding 26 μL of 3N HCl. Fluorescence was measured at Ex=360 nm; Em=486 nm, 5×5 slit width along with a His-Leu standard calibration curve fluorometer: Varian Cary Eclipse plate reader.
(§2) All assays included enzyme incubated with buffer in the absence of inhibitor (i.e. 0 μM inhibitor concentration).

Another data set has as its target ACE N-domain (Homo sapiens, UniProt P12821). In words: ACE inhibitory activity, fluorometric determination of phthaldialdehyde-derivatised His-Leu, N-domain. To be noted: substrate ZPHL; enzyme + inhibitor incubated 3 hours at ambient temperature; read-out: Ki (N-dom) ZPHL. The data set is classed as biochemical. As for the experimental part:
as §1, §2

Chain of tACEdelta36NJ (tACE, C domain) (P12821 642-1230 limits assumed): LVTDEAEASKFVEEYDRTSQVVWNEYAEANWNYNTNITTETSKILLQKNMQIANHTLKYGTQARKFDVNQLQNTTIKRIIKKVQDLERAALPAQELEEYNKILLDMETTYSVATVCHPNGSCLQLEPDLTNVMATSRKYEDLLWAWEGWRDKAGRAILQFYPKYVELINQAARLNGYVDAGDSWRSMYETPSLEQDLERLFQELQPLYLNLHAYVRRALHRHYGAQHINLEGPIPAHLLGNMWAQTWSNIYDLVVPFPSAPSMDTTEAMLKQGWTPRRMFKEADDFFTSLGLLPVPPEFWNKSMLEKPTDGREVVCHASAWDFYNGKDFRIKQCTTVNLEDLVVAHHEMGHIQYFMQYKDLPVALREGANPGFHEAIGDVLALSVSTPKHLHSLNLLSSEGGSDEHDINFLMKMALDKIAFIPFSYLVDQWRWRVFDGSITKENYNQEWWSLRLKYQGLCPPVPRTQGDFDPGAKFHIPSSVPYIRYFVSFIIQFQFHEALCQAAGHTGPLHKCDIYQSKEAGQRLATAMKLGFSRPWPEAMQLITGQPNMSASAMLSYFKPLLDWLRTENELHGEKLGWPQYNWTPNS
Chain of ACE N-domain (P12821 40-624 limits assumed): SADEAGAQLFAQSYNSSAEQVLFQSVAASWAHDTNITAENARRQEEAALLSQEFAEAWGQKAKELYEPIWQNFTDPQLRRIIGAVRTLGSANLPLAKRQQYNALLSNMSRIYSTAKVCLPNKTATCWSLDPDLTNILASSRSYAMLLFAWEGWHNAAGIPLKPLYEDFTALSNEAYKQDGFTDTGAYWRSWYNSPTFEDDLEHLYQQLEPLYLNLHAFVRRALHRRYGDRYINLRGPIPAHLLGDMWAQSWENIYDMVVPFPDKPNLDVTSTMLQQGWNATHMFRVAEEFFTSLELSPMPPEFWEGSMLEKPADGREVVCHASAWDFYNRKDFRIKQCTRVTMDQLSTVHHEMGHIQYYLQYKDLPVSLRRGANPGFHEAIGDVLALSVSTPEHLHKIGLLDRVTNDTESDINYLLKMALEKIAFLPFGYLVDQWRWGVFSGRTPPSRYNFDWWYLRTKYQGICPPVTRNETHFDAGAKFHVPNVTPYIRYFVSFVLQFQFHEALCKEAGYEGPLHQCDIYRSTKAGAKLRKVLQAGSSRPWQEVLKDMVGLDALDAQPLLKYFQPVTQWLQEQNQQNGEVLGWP

Turning to `O=C(N[C@@H](Cc1ccccc1)C(=O)CCC(=O)N1CCC[C@H]1C(=O)O)c1ccccc1` [Compound 5a, (5S)-5-[(N-benzoyl)amino]-4-oxo-6-phenyl-hexanoyl-L-proline], in data set [1], the “inhibitory activity for ACE as compared to lisinopril” value is on record as “weak inhibitory activity”.
Regarding `O=C(CCC(=O)[C@H](Cc1ccccc1)NC(=O)c1ccccc1)N[C@@H](Cc1c[nH]c2ccccc12)C(=O)O` [Compound 5b, (5S)-5-[(N-benzoyl)amino]-4-oxo-6-phenyl-hexanoyl-L-tryptophan], the melting point lay within 171 to 173 °C. In data set [1], the “inhibitory activity for ACE as compared to lisinopril” value is on record as “weak inhibitory activity” and the inhibition constant Ki turned out to be 0.8 µM. For the same molecule, the “C-domain specific (fold)” value in data set [1] (tACE (C domain) versus N-domain) is recorded as 245 fold. Also, at ACE N-domain, the Ki was 196 µM.
Turning to `O=C(CCC(=O)[C@H](Cc1ccccc1)NC(=O)c1ccccc1)N[C@@H](Cc1ccccc1)C(=O)O` [Compound 5c, (5S)-5-[(N-benzoyl)amino]-4-oxo-6-phenyl-hexanoyl-L-phenylalanine], in data set [1], the “inhibitory activity for ACE as compared to lisinopril” value is on record as “weak inhibitory activity” and the Ki turned out to be 23.7 µM. For the same molecule, on ACE N-domain, the Ki is 84.3 µM.
Regarding `CC(C)(C)OC(=O)N[C@@H](Cc1ccccc1)C(=O)CCC(=O)N1CCC[C@H]1C(=O)O` [Compound 11a, (5S)-6-phenyl-5-[(tert-butyloxycarbonyl)-amino]-4-oxo-hexanoyl-L-proline], the “domain selectivity (in words)” value in data set [1] (N-domain versus tACE (C domain)) is given as “inhibits N-domain more effectively than tACE”. The “inhibitory activity for ACE as compared to lisinopril” value in data set [1] is “weak inhibitory activity”. In addition, the Ki in data set [1] was 144 µM; at ACE N-domain, 33.6 µM.
On to `CC(C)(C)OC(=O)N[C@@H](Cc1ccccc1)C(=O)CCC(=O)N[C@@H](Cc1c[nH]c2ccccc12)C(=O)O` [Compound 11b, (5S)-6-phenyl-5-[(tert-butyloxycarbonyl)-amino]-4-oxo-hexanoyl-L-tryptophan], for which the melting point was 141 to 143 °C.

Broadly, the melting point is the temperature of the solid-liquid transition. For orientation: Ki means a measure of affinity in units of concentration, obtained from inhibition or displacement.
